Values quoted from earlier work in patent publication US20250049835A1, “COMPOSITIONS FOR ALTERING CYCLIC ADP-RIBOSE SECONDARY MESSENGER SIGNALLING” (Yeda Research and Development Co. Ltd., priority 2022, published 2025).

Target: T1, Bacillus cereus MSX-D12 ThsA enzyme (Bacillus cereus, UniProt J8G6Z1)
T1 construct: The reporter enzyme ThsA was expressed and purified as described previously; made in house
T1 sequence (J8G6Z1 1-476): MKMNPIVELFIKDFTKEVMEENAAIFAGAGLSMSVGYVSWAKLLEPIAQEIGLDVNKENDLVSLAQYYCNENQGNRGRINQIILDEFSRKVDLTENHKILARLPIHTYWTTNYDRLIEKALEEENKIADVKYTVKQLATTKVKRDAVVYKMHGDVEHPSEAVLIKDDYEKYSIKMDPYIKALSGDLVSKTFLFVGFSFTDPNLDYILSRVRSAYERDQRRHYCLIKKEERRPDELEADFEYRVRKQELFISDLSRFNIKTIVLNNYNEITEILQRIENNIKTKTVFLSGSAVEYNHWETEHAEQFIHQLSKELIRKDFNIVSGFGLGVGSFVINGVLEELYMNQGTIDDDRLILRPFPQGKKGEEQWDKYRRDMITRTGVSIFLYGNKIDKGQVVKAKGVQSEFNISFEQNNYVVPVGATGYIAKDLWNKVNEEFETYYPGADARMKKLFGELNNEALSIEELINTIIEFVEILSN
Settings: previously shown

Nc1ncnc2c1ncn2[C@@H]1O[C@@H]2COP(=O)(O)OP(=O)(O)OC[C@H]3O[C@@H](OC1C2O)C(O)C3O (stereo partly shown) [1′-2′ gcADPR]
Activation of ThsA by cADPR isomer produced by plant TIR proteins: can activate the Theoris effector ThsA
